From patent US20230233500A1, “Gasdermin D (GSDMD) Succination for the Treatment of Inflammatory Disease” (University of Massachusetts, priority 2020, published 2023)
Counter-ions that a name gives are not always drawn.

Legend:
Type in all cases: cell-based, mouse
[1] = test system: Bone marrow-derived macrophages (BMDMs); experiment: LPS-nigericin inflammasome activation/pyroptosis in BMDMs; conditions: for LPS-Nig induced pyroptosis (inhibitory effect): BMDMs, compound 25 μM 1 hour, nigericin; for LPS-Nig induced pyroptosis (inhibitory effect) / LPS-Nig-induced release of LDH / LPS-Nig-induced release of IL-1β: LPS 2 hr; for formation of GSDMD-N / LPS-Nig-induced release of LDH / LPS-Nig-induced release of IL-1β / kinetic cell death: WT BMDMs; for formation of GSDMD-N / kinetic cell death: LPS-Nig; for formation of GSDMD-N: immunoblot; for LPS-Nig-induced release of LDH / LPS-Nig-induced release of IL-1β: compound 1 hour (fumarate 25 μM), then nigericin; for LPS-Nig-induced release of IL-1β: ELISA; for kinetic cell death: SYTOX orange, 0-6 hrs
Protocol: Human kidney cell line HEK293T was cultured in Dulbecco's modified Eagle's medium supplemented with 10% (v/v) fetal bovine serum, 100 U/ml penicillin and 100 µg/ml streptomycin. Human peripheral blood monocyte cell line, THP1 cells were cultured in RPMI-1640 medium supplemented with 10% (v/v) fetal bovine serum, 100 U/ml penicillin and 100 µg/ml streptomycin. For isolation of BMDMs, tibias and femurs were removed from wild type and GsdmD^−/− mice and bone marrow was flushed with complete DMEM-medium. Cells were plated in medium containing 20% (v/v) conditioned medium of L929 mouse fibroblasts cultured for 7 days at 37° C. in a humidified atmosphere of 5% C02. Medium was replaced every 3 days.
Conditioned media or serum was collected as indicated and IL-1β or TNF-α, were quantified by sandwich ELISA (R&D Systems).
Cells were plated, treated and incubated in phenol red free medium. Following treatment medium was collected and assessed for LDH release using the CytoTox96 non-radioactive cytotoxicity assay (Promega) as per manufacturer's instructions. Kinetic cell death assays were performed using SytoxOrange and the Biotek Cytation5.
For noncanonical inflammasome activation, cells were primed with […] Pam3CSK4 (Invivogen) for 2 h, followed by transfection of LPS (2 μg/ml) using Lipofectamine 2000 for 16 hours.
Primary BMDMs from WT or GsdmD^−/− mice were cultured in 12-well plates (1×10^6 cells per ml; 1 ml) or 10 cm dishes (2×10^6 cells per ml; 10 ml). HEK293T cells (2.5×10^5 cells per ml; 3 ml) were cultured in 6-well plates and transfected with FLAG-tagged GSDMD constructs where indicated. For cell lysate analysis cells were lysed directly in 1× Lamelli sample buffer. For native gel analysis cells were lysed in NP-40 lysis buffer (50 mM Tris-HCl, pH 7.4, containing 150 mM NaCl, 0.5% (w/v) IgePal, 50 mM NaF, 1 mM Na3VO4, 1 mM dithiothreitol, 1 mM phenylmethylsulfonyl fluoride and protease inhibitor cocktail. For immunoprecipitation of GSDMD, cells were treated as indicated and then collected in 500 μl RIPA buffer, followed by incubation for 15 min on ice. Lysates were incubated with GSDMD antibody and protein A-protein G-agarose was added to each sample, followed by incubation overnight at 4° C. Immunoprecipitates were collected by centrifugation and washed four times with 1 ml of RIPA buffer. Immunprecipates were eluted from beads using 1× sample buffer. Samples were resolved by SDS-PAGE and stained using simply blue safe stain or transferred to nitrocellulose membranes and analyzed by immunoblot. Immunoreactivity was visualized by the Odyssey Imaging System (LICOR Biosciences). For immunoblotting of IL-1β in cell supernatants, conditioned medium was collected and filtered using filter spin columns to reduce salt and remove abundant serum proteins. Filtrates were added to 4×SDS-PAGE sample buffer and resolved by SDS-PAGE for immunoblot analysis. GSDMD (ab209845) and GSDME antibodies were from abcam (ab215191). Caspase 1 antibody was from adipogen. Fumarase antibody was from cell signalling and anti-β-actin (AC-15; A1978) were from Sigma; anti-mouse IRDye™ 680 (926-68070) and anti-rabbit IRDye™ 800 (926-32211) were from LI-COR Biosciences.
Numerous studies have shown that cell metabolism impacts inflammatory responses. LPS activated macrophages switch from oxidative phosphorylation to aerobic glycolysis. Krebs cycle intermediates such as succinate and itaconate accumulate and moonlight as positive and negative regulators of inflammatory gene expression (3-8). To determine if Krebs cycle intermediates modulate pyroptosis, we tested their effect on inflammasome responses. Bone marrow-derived macrophages (BMDMs) were primed with LPS (2 hr) before being exposed to metabolites and then exposed to nigericin (Nig) and inflammasome activation/pyroptosis measured. The metabolites were added after LPS to avoid any impact on transcription. […] Fumarate impaired kinetic cell death (0-6 hrs) (FIG. 1E, FIG. 5A). […]

GAPDH target gene iNos = experiment: QPCR/immunoblot of iNos in BMDMs; conditions: WT BMDMs, HA 1 μM 1 hour, LPS 3 or 6 hours
Protocol: (§1) FIGS. 7A-K. Fumarate regulates pyroptosis independently of NRF2 and GAPDH. (A-B) Kinetic cell death data of WT primary BMDMs treated with LPS for 2 hours, DMSO (vehicle) or fumarate (25 μM) or heptilidic acid (HA) (0.5 μM or 1 μM) (A) or ML385 (1 μM) (B) followed by nigericin (10 μM) for 6 hours. (C-D) LDH (C) and IL-1B (D) release from WT primary BMDMs treated with LPS for 2 hours, DMSO (vehicle) or fumarate (25 μM) for 1 hour, HA or ML385 (1 μM) for 1 hour followed by nigericin (10 μM) or 1 hour. (E-F) Immunoblot analysis of GSDMD in cell lysates from WT BMDMs treated as in (B) with the indicated inhibitors. (G-H) QPCR (G) and immunoblot (H) analysis of iNos in WT BMDMs treated with DMSO (vehicle) or HA (1 μM) for 1 hour and LPS for 3 (G) or 6 (H) hours. (I) QPCR analysis of Hmox1 mRNA in WT BMDMs treated with DMSO (vehicle) or ML385 (1 μM) for 3 hours. (J-K) LDH assay (J) and immunoblot analysis of GSDMD (K) in WT BMDMs transfected with control non-targeting siRNA or NRF2-specific siRNAs (50 nM) for 48 hours followed by treatment with LPS for 2 hours, DMSO (vehicle) or fumarate (25 μM) and nigericin (10 μM) or 1 hour. A, B, E, F, H, K representative images from 3 independent experiments. C, D, G, I, K pooled data from 3 independent experiments. *, P<0.01, ****, P<0.00001 (Two-way ANOVA). Error bars show means±SD (A, B) or SEM (C, D, G, I, J).

NRF2 target gene Hmox1 = experiment: QPCR of Hmox1 mRNA in BMDMs; conditions: WT BMDMs, ML385 1 μM 3 hours
Protocol: as §1

Row | SMILES | LPS-Nig induced pyroptosis (inhibitory effect) [1] | formation of GSDMD-N [1] | expression of GAPDH target gene iNos (GAPDH target gene iNos) | LPS-Nig-induced release of LDH [1] | LPS-Nig-induced release of IL-1β [1] | kinetic cell death [1] | expression of NRF2 target gene Hmox1 (NRF2 target gene Hmox1)
1 | COC(=O)/C=C/C(=O)O [MMF, Monomethyl fumarate] | no inhibitory effect |  |  |  |  |  | 
2 | CCN(CC)C(=O)COC(=O)/C=C/C(=O)OC [tepilamide fumarate] | blocked | blocked |  |  |  |  | 
3 | CC(C)[C@H]1CC[C@@]2(CO2)[C@H]2C(=O)OCC(C(=O)O)=C[C@H]12 [Heptilidic acid] |  | no impact | inhibited | no impact | no impact | no impact | 
4 | Cc1ccccc1C(=O)N1CCc2cc(-c3nc(NC(=O)Cc4ccc5c(c4)OCO5)sc3C)ccc21 [ML385] |  | no impact |  | no impact | no impact | no impact | inhibited
5 | COC(=O)/C=C/C(=O)OCCN1C(=O)CCC1=O [diroximel fumarate] | blocked | blocked |  |  |  |  | 
